Paper PMC10385850, “Modified Hederagenin Derivatives Demonstrate Ex Vivo Anthelmintic Activity against Fasciola hepatica” (Pharmaceutics, 2023)
“Also recorded” adds a separate entry of the source.

Assays:
[1] = system: F. hepatica newly excysted juveniles (NEJs), Italian strain; assay: Ex vivo screen against newly excysted juveniles (NEJs), phenotype and motility scoring; type: cell-based, Fasciola hepatica; details: 10 µM; for Average motility of 25 NEJs with 95% CI, 24 hours / Average motility of 25 NEJs with 95% CI, 48 hours / Average motility of 25 NEJs with 95% CI, 72 hours: motility score 1 good/normal to 5 no movement; for Average phenotype of 25 NEJs with 95% CI, 24 hours / Average phenotype of 25 NEJs with 95% CI, 48 hours / Average phenotype of 25 NEJs with 95% CI, 72 hours: ultrastructure score 1 normal to 6 dead or dissolved; for Activity against NEJs (first screen), in words: 72 h co-culture
Method: […] The NEJs were excysted from metacercariae and assayed at 10 μM (in 0.1% DMSO) final concentration alongside negative (0.1% DMSO) and positive (10 μM TCBZ, in 0.1% DMSO) controls as previously described. The MC and IVL compound series were screened separately.
The motility (1—good/normal; 2—moderate; 3—low; 4—very little; 5—no movement) and phenotypic (ultrastructural changes) scores were noted according to a previously described scoring matrix (Figure S1 and Table S2).

[2] = system: wild strain adult F. hepatica; assay: Ex vivo motility assay on adult liver flukes (wild strain); type: cell-based, Fasciola hepatica; details: 40 µM; for Effect on wild strain adult fluke motility, in words: 72 h; for Average motility of 4 parasites with 95% CI at 72 hour time point: wild strain adult flukes, score 1 good/normal to 6 no movement or dead
Method: Due to the high number of active molecules and a shortage of Italian strain adult liver flukes, the eleven hit compounds were screened for 72 h at 40 µM (in 0.4% DMSO) on wild strain adult F. hepatica (n = 4/condition) of unknown provenance (Table S3). The protocol for culturing and scoring (motility) the activity of these compounds was previously described (1—good/normal; 2—moderate; 3—resting (less than 10 s pulses of body and head), 4—apathetic (less than 2 s pulses of body and head), 5—paralysis and 6–no movement or dead worms). Six compounds were deemed active in these assays and were selected for further screening.

Compound	Average motility of 25 NEJs with 95% CI, 24 hours [1]	Average phenotype of 25 NEJs with 95% CI, 24 hours [1]	Average motility of 25 NEJs with 95% CI, 48 hours [1]	Average phenotype of 25 NEJs with 95% CI, 48 hours [1]	Average motility of 25 NEJs with 95% CI, 72 hours [1]	Average phenotype of 25 NEJs with 95% CI, 72 hours [1]	Activity against NEJs (first screen), in words [1]	Effect on wild strain adult fluke motility, in words [2]	Average motility of 4 parasites with 95% CI at 72 hour time point [2]
CC1(C)CC[C@]2(NC(=O)N3CCCC3)CC[C@]3(C)C(=CCC4[C@@]5(C)CCC6OC(C)(C)OC[C@@]6(C)C5CC[C@]43C)C2C1 (stereo partly drawn) [MC023, N-((4aR,6aR,6bS,8aS,14bR)-2,2,4a,6a,6b,11,11,14b-Octamethyl-4a,5,6,6a,6b,7,8,9,10,11,12,12a,14,14a, 14b,15,16,16a-octadecahydro-4H-piceno[3,4-d][1,3]dioxin-8a(4bH)-yl)-pyrolidine-1-carboxamide]	5.00 (5.0;5.0)	5.00 (5.0;5.0)	5.00 (5.0;5.0)	5.00 (5.0;5.0)	5.00 (5.0;5.0)	5.00 (5.0;5.0)	maximal alterations to both phenotype/ultrastructure and motility	less severe motility defects	4.75 (3.5;5.9)
CC1(C)CC[C@]2(NC(N)=O)CC[C@]3(C)C(=CCC4[C@@]5(C)CCC6OC(C)(C)OC[C@@]6(C)C5CC[C@]43C)C2C1 (stereo partly drawn) [MC024, 1-((4aR,6aR,6bS,8aS,14bR)-2,2,4a,6a,6b,11,11,14b-Octamethyl-4a,5,6,6a,6b,7,8,9,10,11, 12, 12a,14,14a, 14b,15,16,16a-octadecahydro-4H-piceno[3,4-d][1,3]dioxin-8a(4bH)-yl)urea]	5.00 (5.0;5.0)	5.00 (5.0;5.0)	5.00 (5.0;5.0)	5.00 (5.0;5.0)	5.00 (5.0;5.0)	5.00 (5.0;5.0)	maximal alterations to both phenotype/ultrastructure and motility	less severe motility defects	4.25 (3.2;5.7)
CC1(C)CC[C@]2(NC(=O)N[C@H]3C(O)O[C@H](CO)[C@@H](O)[C@@H]3O)CC[C@]3(C)C(=CCC4[C@@]5(C)CCC6OC(C)(C)OC[C@@]6(C)C5CC[C@]43C)C2C1 (stereo partly drawn) [MC028, 1-((4aR,6aR,6bS,8aS,14bR)-2,2,4a,6a,6b,11,11,14b-Octamethyl-4a,5,6,6a,6b,7,8,9,10,11, 12,12a,14,14a, 14b,15,16,16a-octadecahydro-4H-piceno[3,4-d][1,3]dioxin-8a(4bH)-yl)-3-((3R,4R,5S,6R)-2,4,5-tri-hydroxy-6-(hydroxymethyl)tetrahydro-2H-pyran-3-yl)urea]	2.32 (1.8;2.7)	2.24 (1.6;2.8)	3.52 (2.9;4)	2.76 (2;3.4)	2.60 (1.9;3.2)	2.72 (2;3.4)	none reached the level required	–	–
CC1(C)CC[C@]2(NC(=O)N[C@H]3C(O)O[C@H](CO)[C@@H](O)[C@@H]3O)CC[C@]3(C)C(=CCC4[C@@]5(C)CC[C@H](O)[C@@](C)(CO)C5CC[C@]43C)C2C1 (stereo partly drawn) [MC030, 1-((4aS,6aS,6bR,9R,10S,12aR)-10-Hydroxy-9-(hydroxymethyl)-2,2,6a,6b,9,12a-hexa-methyl-1,3,4,5,6,6a,6b,7,8,8a,9,10,11,12,12a,12b,13,14b-octadecahydropicen-4a(2H)-yl)-3-((3R,4R,5S,6R)-2,4,5-tri-hydroxy-6-(hydroxymethyl)tetrahydro-2H-pyran-3-yl)urea]	3.20 (2.6;3.7)	3.00 (2.2;3.7)	3.92 (3.5;4.2)	3.60 (2.9;4.2)	3.96 (3.4;4.4)	4.00 (3.2;4.7)	none reached the level required; also recorded: low activity	–	–
CC(=O)OC[C@]12CCC(C)(C)CC1C1=CCC3[C@@]4(C)CCC5OC(C)(C)OC[C@@]5(C)C4CC[C@@]3(C)[C@]1(C)CC2 (stereo partly drawn) [MC031, ((4aR,6aR,6bS,8aS,14bR)-2,2,4a,6a,6b,11,11,14b-Octamethyl-4a,5,6,6a,6b,7,8,9,10,11,12,12a,14,14a, 14b,15,16,16a-octadecahydro-4H-piceno[3,4-d][1,3]dioxin-8a(4bH)-yl)methyl acetate]	2.96 (2.4;3.4)	2.72 (1.9;3.4)	2.76 (2;3.4)	3.64 (2.9;4.3)	3.44 (2.6;4.2)	4.80 (4.2;5.3)	–	–	–
CCCCCCCCCCCCCCCC(=O)OC[C@]12CCC(C)(C)CC1C1=CCC3[C@@]4(C)CCC5OC(C)(C)OC[C@@]5(C)C4CC[C@@]3(C)[C@]1(C)CC2 (stereo partly drawn) [MC032, ((4aR,6aR,6bS,8aS,14bR)-2,2,4a,6a,6b,11,11,14b-Octamethyl-4a,5,6,6a,6b,7,8,9,10,11,12,12a,14,14a, 14b,15,16,16a-octadecahydro-4H-piceno[3,4-d][1,3]dioxin-8a(4bH)-yl)methyl palmitate]	3.20 (2.6;3.7)	2.52 (1.7;3.3)	3.12 (2.5;3.6)	2.64 (1.8;3.4)	3.12 (2.5;3.7)	2.80 (2;3.5)	–	–	–
CC1(C)CC[C@]2(NC(=O)N3CCC[C@H]3C(=O)O)CC[C@]3(C)C(=CCC4[C@@]5(C)CCC6OC(C)(C)OC[C@@]6(C)C5CC[C@]43C)C2C1 (stereo partly drawn) [MC033, (((4aR,6aR,6bS,8aS,14bR)-2,2,4a,6a,6b,11,11,14b-Octamethyl-4a,5,6,6a,6b,7,8,9,10,11,12,12a,14,14a, 14b,15,16,16a-octadecahydro-4H-piceno[3,4-d][1,3]dioxin-8a(4bH)-yl)carbam-oyl)-L-proline]	3.80 (3.4;4.1)	3.28 (2.7;3.8)	3.88 (3.5;4.2)	3.44 (2.8;4)	3.76 (3.2;4.2)	4.04 (3.3;4.6)	–	–	–
CCCCCCCCCCCCCCCC(=O)OC[C@]12CCC(C)(C)CC1C1=CCC3[C@@]4(C)CC[C@H](O)[C@@](C)(CO)C4CC[C@@]3(C)[C@]1(C)CC2 (stereo partly drawn) [MC038, ((4aS,6aS,6bR,9R,10S,12aR)-10-Hydroxy-9-(hydroxymethyl)-2,2,6a,6b,9,12a-hexamethyl-1,3,4,5,6,6a, 6b,7,8,8a,9,10,11,12,12a,12b,13,14b-octadecahydropicen-4a(2H)-yl)methyl palmitate]	2.96 (2.3;3.5)	2.32 (1.7;2.9)	2.80 (2.2;3.3)	2.92 (2.1;3.6)	3.32 (2.7;3.8)	3.48 (2.7;4.2)	–	–	–
COC(=O)[C@H](Cc1c[nH]cn1)NC(=O)N[C@]12CCC(C)(C)CC1C1=CCC3[C@@]4(C)CC[C@@H]5OC(C)(C)OC[C@@]5(C)C4CC[C@@]3(C)[C@]1(C)CC2 (stereo partly drawn) [MC048, Methyl (((4aR,6aR,6bS,8aS,14bR,16aS)-2,2,4a,6a,6b,11,11,14b-octamethyl-4a,5,6,6a,6b,7,8,9,10,11,12, 12a,14,14a,14b,15,16,16a-octadecahydro-4H-piceno[3,4-d][1,3]dioxin-8a(4bH)-yl)carbamoyl)-L-histidinate]	1.40 (1.2;1.5)	1.44 (1.2;1.6)	–	–	1.96 (1.8;2)	1.88 (1.7;2)	–	–	–
CN(C[C@H](O)[C@@H](O)[C@H](O)[C@H](O)CO)C(=O)N[C@]12CCC(C)(C)CC1C1=CCC3[C@@]4(C)CC[C@@H]5OC(C)(C)OC[C@@]5(C)C4CC[C@@]3(C)[C@]1(C)CC2 (stereo partly drawn) [MC059, 1-Methyl-3-((4aR,6aR,6bS,8aS,14bR,16aS)-2,2,4a,6a,6b,11,11,14b-octamethyl-4a,5,6,6a, 6b,7,8,9,10,11, 12,12a,14,14a,14b,15,16,16a-octadecahydro-4H-piceno[3,4-d][1,3]dioxin-8a(4bH)-yl)-1-((2S,3R,4R,5R)-2,3,4,5,6-pentahydroxyhexyl)urea]	2.84 (2.3;3.3)	2.68 (1.9;3.3)	3.20 (2.7;3.6)	3.04 (2.3;3.7)	3.20 (2.6;3.7)	3.88 (3.2;4.4)	none reached the level required	–	–
